In patent US7998936B2, “Use of timosaponin Bll in the preparation of a medicament or product for the prevention and treatment of stroke” (Institute of Radiation Medicine, Academy of Military …, priority 2004, dated 2011):

Columns and labels:
[1] = tested on: Middle Cerebral Artery Thrombosis (MCAT) Rats; test: Water content in brain tissues in middle cerebral artery thrombosis rats; format: in vivo, rat; conditions: 24 h after operation, 12 mg/kg
[2] = tested on: acute blood stagnation model rats; test: Whole blood and plasma viscosities in acute blood stagnation model rats; format: in vivo, rat; conditions: 12 mg/kg by gavage 5 days
Text: MAO Teng-min's methods were modified to prepare the model.

[3] = tested on: acute blood stagnation model rats; test: Erythrocyte aggregation and deformability in acute blood stagnation model rats; format: in vivo, rat; conditions: 12 mg/kg
Procedure: MAO Teng-min's methods were modified to prepare the model. Rats were subcutaneously injected with 0.8 mg/kg adrenaline twice at 1 h and 5 h after administration on the fifth day, and were placed into ice-water at 4° C. for 5 min at 2 h after the first injection of adrenaline.
To 40 μl of heparinized blood, 1 ml of deforming solution was added and mixed thoroughly. A sample of 0.8 ml was tested in an erythrocyte aggregation/deformability tester, and erythrocyte deformability was expressed as maximal erythrocyte deformation index and area under curve (SSS). Another 0.8 ml of anticoagulated blood was tested in an erythrocyte aggregation/deformability tester, and erythrocyte aggregation was expressed as maximal erythrocyte aggregation index (MAXD) and area under curve ([…]).

IL-1β = test: ELISA of IL-1β in brain tissue of cerebral ischemia-reperfusion rats; conditions: brain homogenate, 12 mg/kg by gavage 5 days
TNF-α = test: ELISA of TNF-α in brain tissue of cerebral ischemia-reperfusion rats; conditions: brain homogenate, 12 mg/kg by gavage 5 days
IL-10 = test: ELISA of IL-10 in brain tissue of cerebral ischemia-reperfusion rats; conditions: brain homogenate, 12 mg/kg by gavage 5 days
TGF-β = test: ELISA of TGF-β in brain tissue of cerebral ischemia-reperfusion rats; conditions: brain homogenate, 12 mg/kg by gavage 5 days

For COCCOC(=O)C1=C(C)NC(C)=C(C(=O)OC(C)C)C1c1cccc([N+](=O)[O-])c1 (stereo not drawn) [Nimodipine, reference compound], the “Water content of affected hemisphere” value [1] was 80.37 ± 0.73 %, the “Water content of unaffected hemisphere” value [1] was 79.44 ± 0.41% and the “Plasma viscosity (100 S^−1)” value [2] was 1.41 ± 0.14. The “Whole blood viscosity 1 S^−1” value [2] was 30.45 ± 8.74, the “Whole blood viscosity 5 S^−1” value [2] was 12.34 ± 2.58 and the “Whole blood viscosity 30 S^−1” value [2] was 6.47 ± 0.92. The “Whole blood viscosity 200 S^−1” value [2] was 4.51 ± 0.55, the “Erythrocyte aggregation SS” value ([3]; area under curve) was 160.38 ± 16.50 and the “Erythrocyte deformability SSS” value ([3]; area under curve) was 353.92 ± 15.83. For the same compound, the “Erythrocyte aggregation MAXD” value ([3]; maximal erythrocyte aggregation index) was 0.80 ± 0.09, the “Erythrocyte deformability MAXDI” value ([3]; maximal erythrocyte deformation index) was 0.70 ± 0.03 and the IL-1β (IL-1β) was 9.01 ± 0.81 pg/mL. The TNFα (TNF-α) was 7.92 ± 0.56 pg/mL, the IL-10 (IL-10) was 4.98 ± 3.54 pg/mL and the TGF-β (TGF-β) was 12.01 ± 2.54 pg/mL.
